Experimental data as given in PMC9804387, “Substrate Peptidomimetic Inhibitors of P. falciparum Plasmepsin X with Potent Antimalarial Activity” (Chemmedchem, 2022).
Counter-ions that a name gives are not always drawn.

Experiments:
[1] = test system: P. falciparum 3D7 parasites; experiment: Asexual stage of arrest assay (Giemsa smears, SYBR green flow cytometry); assay type: cell-based
Procedure: Asexual stage of arrest phenotyping. Inhibition of PMX prevents parasites from egressing from the host erythrocyte and arrests asexual stage parasites at the late schizont stage. […] In this assay, highly synchronized asexual ring stage parasites were treated with ten times the EC50 of 38 and 49c (2) and the DMSO vehicle control. The parasite stage of arrest was analyzed by microscopy of Giemsa‐stained blood smears, while parasitemia was quantified by flow cytometry at 12, 24, 36 and 48 hours.
Stage Arrestment Assay. As previously described,[42] P. falciparum 3D7 parasites were synchronized using a 5 % D‐sorbitol solution prior to assay set‐up. Ring‐staged parasites were adjusted to a final parasitemia and haematocrit of 1 % and 2 %, respectively. Compounds were added to a final concentration of 10×EC50 which were replenished after 24 h. Plates were incubated at 37°C for 48 h and blood smears and 50 μL aliquots in triplicate were harvested every 12 h. Aliquots for flow cytometry analysis were fixed in 0.25 % glutaraldehyde for 30 min at room temperature before being washed in PBS and stored at 4 °C until completion of the assay. To determine parasitemia, fixed blood pellets were stained with 50 μL 2.5×SYBR Green (Invitrogen) for 30 min before being diluted with 180 μL of PBS. 100 000 cells for each sample were counted using an Attune Flow Cytometer (ThermoFisher Scientific). Blood smears were stained with Giemsa and morphology of parasites were examined using a Zeiss Axio Observer microscope.

renin = molecular target: T1, renin (Homo sapiens, UniProt P00797); experiment: Renin FRET protease assay; assay type: biochemical; conditions: mean and SD of 4 replicate FRET experiments, 37 °C; highest concentration tested 11 μM
T1 construct: purchased Proteos R-001
T1 sequence (P00797 67-406): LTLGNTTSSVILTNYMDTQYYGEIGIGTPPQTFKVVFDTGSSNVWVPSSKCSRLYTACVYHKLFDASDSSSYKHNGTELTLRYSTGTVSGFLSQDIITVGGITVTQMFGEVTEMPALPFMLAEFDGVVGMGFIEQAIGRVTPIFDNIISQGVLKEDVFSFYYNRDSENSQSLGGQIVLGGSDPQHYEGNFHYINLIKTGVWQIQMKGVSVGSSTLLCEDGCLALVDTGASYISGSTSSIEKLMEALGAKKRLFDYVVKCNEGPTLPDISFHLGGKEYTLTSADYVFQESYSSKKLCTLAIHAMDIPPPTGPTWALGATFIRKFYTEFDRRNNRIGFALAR

recombinant Pv PMV = molecular target: T2, recombinant Pv PMV (Plasmodium vivax, UniProt A5K302); experiment: PMV FRET protease assay; assay type: biochemical
T2 construct: made in house
Procedure: (§1) FRET Protease Assays. FRET protease assays were performed as previously described.[19, 20, 27, 28] Briefly, ten‐point 1 : 3‐fold dilution series of the compounds were prepared in 384‐well black low volume assay plates (Greiner) using an Echo555 (Labcyte). 10 mM compound stocks were transferred into assay plates such that the starting concentration was 90 μM (Pv PMV assays), 11.25 μM (renin, cathepsin D and BACE‐1 assays) or 100 nM and 10 μM (Pf PMX and Pf PMIX assays). All wells were backfilled to 200 nL DMSO such that the DMSO concentration remained constant across the assay plates (1 % final). All compound potency assays were conducted in 20 μL total volume. For each assay, 10 μL of recombinant enzymes in respective assay buffers (Table S2) were dispensed into compound containing assay plates using a Multidrop‐Combi dispenser and allowed to incubate for 15 min. Recombinant Pf PMX, Pf PMIX and Pv PMV were expressed as previously described,[23, 27, 28] and recombinant human aspartyl proteases were purchased commercially. 10 μL of the fluorogenic peptide substrates incubated at 37 °C for the duration and conditions noted in Table S2. Samples were excited at 340 nm and fluorescence emission measured at 492 nm using an Envision fluorescence plate reader (Perkin‐Elmer). The 0 % inhibition control contained DMSO alone (1 % final) and the 100 % inhibition control was in the absence of enzyme. Half‐maximal inhibitory concentration (IC50) values were calculated by GraphPad Prism (8.0.2) software using a nonlinear regression four‐parameter fit analysis using a sigmoidal dose response (variable slope).
(§2) Table S2 . P rotease FRET assay conditions.
(§3) PMX as sa y PMIX PM V assay Renin assay Cathepsin D assay BA CE-1 assay E nzy me prot e as e 0.25 nM pro te a se 6 nM prot e as e q ua nti ty 0.1 nM pro t ea se 1.5 nM pro t ea se 2.5 nM pro t ea se 3 nM (Pro te os #R-001) ( Athe ns Re sea rc h (Sigma #S4195) […]
(§4) 25mM so di um acetate, 100 mM 25 mM M E S, 25 m M 50 mM Tr is, 100 mM 100 mM so di u m 20 mM so dium Buffer acetate, 0.005% sodium chloride and Tris-HCl, 0.01% N aC l, 0. 1% Bri j-35, acetate 0.02% scetate, 0.05% […]
(§5) Sub str at e DABCYL- ( DA BC YL ) - DABCYL- DABCYL-(γ- Ab u) - E[E(EDANS)]KPIL […]

recombinant Pf PMX = molecular target: T3, recombinant Pf PMX (Plasmodium falciparum, UniProt Q8IAS0); experiment: PMX biochemical FRET assay (Rh2N fluorogenic substrate cleavage); conditions: 37 °C
T3 construct: made in house
Procedure: as §1, with “Half‐maximal inhibitory concentration (IC50) values were calculated by GraphPad Prism (8.0.2) software using a nonlinear regression four‐parameter fit analysis using a sigmoidal dose response (variable slope).” left out
as §2, §3, §4, §5

recombinant Pf PMIX = molecular target: T4, recombinant Pf PMIX (Plasmodium falciparum, UniProt Q8ILG2); experiment: PMIX FRET protease assay; assay type: biochemical, P. falciparum; conditions: mean and SD of 4 replicate FRET experiments, 37 °C
T4 construct: made in house
Procedure: as §1, §2, §3, §4, §5

cathepsin D = molecular target: T5, cathepsin D (Homo sapiens, UniProt P07339); experiment: Cathepsin D FRET protease assay; assay type: biochemical; conditions: mean and SD of 4 replicate FRET experiments, 37 °C; highest concentration tested 11 μM
T5 construct: purchased Athens Research 16-12-030104

[2] = Table 3, mean and SD of 4 replicate FRET experiments
[3] = recombinant PMX, fluorogenic substrate (Rh2N) cleavage, 4 h, mean and SD of 4 replicates (Tables 1, 2)

T3 sequence (Q8IAS0 222-573): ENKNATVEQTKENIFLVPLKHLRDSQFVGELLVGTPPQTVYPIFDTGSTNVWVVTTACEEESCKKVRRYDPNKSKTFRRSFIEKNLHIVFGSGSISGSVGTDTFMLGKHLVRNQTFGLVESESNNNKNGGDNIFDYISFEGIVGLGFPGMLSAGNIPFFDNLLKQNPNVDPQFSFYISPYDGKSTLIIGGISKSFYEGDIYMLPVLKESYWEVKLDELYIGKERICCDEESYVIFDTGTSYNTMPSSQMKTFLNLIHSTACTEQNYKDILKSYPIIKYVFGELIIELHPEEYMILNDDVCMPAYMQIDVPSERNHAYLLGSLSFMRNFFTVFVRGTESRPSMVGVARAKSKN
T5 sequence (P07339 65-412): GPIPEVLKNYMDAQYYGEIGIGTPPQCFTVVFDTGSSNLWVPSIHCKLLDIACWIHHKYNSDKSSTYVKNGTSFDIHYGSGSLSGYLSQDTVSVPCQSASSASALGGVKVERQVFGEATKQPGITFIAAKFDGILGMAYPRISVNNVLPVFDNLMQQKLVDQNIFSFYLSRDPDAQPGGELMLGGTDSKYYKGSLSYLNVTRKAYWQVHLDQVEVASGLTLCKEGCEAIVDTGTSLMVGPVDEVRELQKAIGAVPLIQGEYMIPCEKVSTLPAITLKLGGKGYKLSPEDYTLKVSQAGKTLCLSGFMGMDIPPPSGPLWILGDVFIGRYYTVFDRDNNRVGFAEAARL
T4 sequence (Q8ILG2 whole entry): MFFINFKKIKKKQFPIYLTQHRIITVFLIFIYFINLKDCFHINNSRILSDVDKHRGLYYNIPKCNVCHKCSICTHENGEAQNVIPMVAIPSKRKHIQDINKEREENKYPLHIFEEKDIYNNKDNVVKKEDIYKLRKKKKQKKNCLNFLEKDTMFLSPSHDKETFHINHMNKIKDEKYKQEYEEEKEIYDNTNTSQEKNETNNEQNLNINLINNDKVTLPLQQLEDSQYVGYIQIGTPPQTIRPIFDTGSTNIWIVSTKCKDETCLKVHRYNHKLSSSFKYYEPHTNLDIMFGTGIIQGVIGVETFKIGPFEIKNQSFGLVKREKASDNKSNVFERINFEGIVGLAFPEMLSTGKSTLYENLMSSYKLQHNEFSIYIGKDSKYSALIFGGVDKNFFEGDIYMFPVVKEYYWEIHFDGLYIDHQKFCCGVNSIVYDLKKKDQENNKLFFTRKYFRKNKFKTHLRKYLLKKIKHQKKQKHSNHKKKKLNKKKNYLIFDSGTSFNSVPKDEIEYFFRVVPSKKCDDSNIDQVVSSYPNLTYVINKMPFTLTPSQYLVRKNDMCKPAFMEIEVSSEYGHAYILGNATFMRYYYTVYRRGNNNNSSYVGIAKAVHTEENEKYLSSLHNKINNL
T2 sequence (A5K302 35-536): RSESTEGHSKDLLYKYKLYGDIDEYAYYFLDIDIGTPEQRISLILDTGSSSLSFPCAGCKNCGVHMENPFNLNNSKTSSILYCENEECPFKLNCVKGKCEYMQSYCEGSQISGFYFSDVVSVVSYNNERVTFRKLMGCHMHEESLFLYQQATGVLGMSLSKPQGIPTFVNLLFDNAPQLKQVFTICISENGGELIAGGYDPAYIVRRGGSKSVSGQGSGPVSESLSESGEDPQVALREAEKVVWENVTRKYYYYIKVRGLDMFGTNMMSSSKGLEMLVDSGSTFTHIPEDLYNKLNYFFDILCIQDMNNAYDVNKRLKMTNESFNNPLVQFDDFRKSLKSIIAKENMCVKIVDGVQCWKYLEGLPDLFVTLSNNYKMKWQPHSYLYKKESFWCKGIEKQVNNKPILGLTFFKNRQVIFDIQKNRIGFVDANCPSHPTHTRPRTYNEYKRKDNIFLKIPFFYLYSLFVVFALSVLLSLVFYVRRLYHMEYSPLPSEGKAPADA

`C[C@@H](NC[C@@H](O)[C@H](Cc1ccccc1)NC(=O)c1ccc(C(=O)N2CCN(C)CC2)cc1)c1ccccc1` [Compd 2, reference compound] was tested, and the “merozoite egress / stage of arrest” value ([1]; 49c (2) at 10×EC50 (6 nM), Giemsa smears and flow cytometry, up to 48 h) was “inhibition of merozoite egress”, the IC50 (renin) was over 11 µM and the IC50 (recombinant Pv PMV) was over 90 µM. It also gave an IC50 (recombinant Pf PMX; [2]) of 0.001 µM, an IC50 (recombinant Pf PMX; [3]) of 0.001 µM and an IC50 (recombinant Pf PMIX) of 15.1 µM. It also gave an IC50 (cathepsin D) of over 11 µM.

With `C[C@@H](NC[C@@H](O)[C@H](Cc1ccccc1)NC(=O)[C@H](CO)NC(=O)OCc1ccccc1)c1ccccc1` [Compd 38, Cbz‐Ser‐Phe‐HEA‐Bn(CH3)⋅TFA] the “parasitemia / establishment of infection by flow cytometry” value ([1]; 38 at 10×EC50 (900 nM), SYBR green flow cytometry at 12, 24, 36, 48 h) was “unable to establish infection beyond 36 h”, the “asexual parasite stage of arrest” value ([1]; 38 at 10×EC50 (900 nM), synchronized ring stage parasites, Giemsa smears, up to 48 h) was “arrests asexual parasites at the schizont stage” and the IC50 (renin) was over 11 µM. For the same compound, the IC50 (recombinant Pv PMV) was over 90 µM, the IC50 (recombinant Pf PMX; [2]) was 0.06 µM and the IC50 (recombinant Pf PMX; [3]) was 0.06 µM. It also gave an IC50 (recombinant Pf PMIX) of 41 µM and an IC50 (cathepsin D) of over 11 µM.
